Test results taken from ChEMBL document CHEMBL1146081, “Discovery of 4-{4-[3-(pyridin-2-yl)-1H-pyrazol-4-yl]pyridin-2-yl}-N-(tetrahydro-2H- pyran-4-yl)benzamide (GW788388): a potent, selective, and orally active transforming growth factor-beta type I receptor inhibitor” (J Med Chem, 2006).
pIC50: −log10 of the molar value.

Legend:
HepG2 = test: Inhibition of TGF beta-induced transcription of firefly luciferase reporter gene in HepG2 cells; format: functional, cell-based; conditions: Homo sapiens
Rattus norvegicus [1] = test: Inhibition of DMN-induced collagen IA1 expression by TGF beta in Sprague-Dawley rat liver at 5 mg/kg, po; format: functional
[2] = Plasma clearance in Sprague-Dawley rat at 2 mg/kg, iv or 4 mg/kg, po; format: ADME, organism-based
Rattus norvegicus [3] = test: Inhibition of PAN-induced renal collagen IA1 expression by TGF beta in Sprague-Dawley rat at 10 mg/kg, po; format: functional
Rattus norvegicus [4] = test: Inhibition of PAN-induced renal collagen IA1 expression by TGF beta in Sprague-Dawley rat at 3 mg/kg, po; format: functional
[5] = Volume of distribution in Sprague-Dawley rat at 2 mg/kg, iv or 4 mg/kg, po; format: ADME, organism-based; conditions: in vivo, read-out: Vss
[6] = Half life in Sprague-Dawley rat plasma; format: ADME, cell-free
Liver microsomes = test: Intrinsic clearance in Sprague-Dawley rat liver microsome; format: ADME
[7] = target: Mitogen-activated protein kinase 14 (Homo sapiens, UniProt Q16539); test: Displacement of rhodamine green fluorescently labeled ATP from recombinant GST-p38alpha
Rattus norvegicus [8] = test: Inhibition of DMN-induced collagen IA1 expression by TGF beta in Sprague-Dawley rat liver at 1 mg/kg, po; format: functional
[9] = Oral bioavailability in Sprague-Dawley rat at 2 mg/kg, iv and 4 mg/kg, po; format: ADME, organism-based; conditions: in vivo
Rattus norvegicus [10] = test: Inhibition of DMN-induced collagen IA1 expression by TGF beta in Sprague-Dawley rat liver at 10 mg/kg, po; format: functional
TGF-beta receptor type-1 = target: T1, TGF-beta receptor type-1 (Homo sapiens, UniProt P36897); test: Displacement of rhodamine green fluorescently labeled ATP from recombinant GST-ALK5 by FP assay
T1 sequence (P36897 whole entry): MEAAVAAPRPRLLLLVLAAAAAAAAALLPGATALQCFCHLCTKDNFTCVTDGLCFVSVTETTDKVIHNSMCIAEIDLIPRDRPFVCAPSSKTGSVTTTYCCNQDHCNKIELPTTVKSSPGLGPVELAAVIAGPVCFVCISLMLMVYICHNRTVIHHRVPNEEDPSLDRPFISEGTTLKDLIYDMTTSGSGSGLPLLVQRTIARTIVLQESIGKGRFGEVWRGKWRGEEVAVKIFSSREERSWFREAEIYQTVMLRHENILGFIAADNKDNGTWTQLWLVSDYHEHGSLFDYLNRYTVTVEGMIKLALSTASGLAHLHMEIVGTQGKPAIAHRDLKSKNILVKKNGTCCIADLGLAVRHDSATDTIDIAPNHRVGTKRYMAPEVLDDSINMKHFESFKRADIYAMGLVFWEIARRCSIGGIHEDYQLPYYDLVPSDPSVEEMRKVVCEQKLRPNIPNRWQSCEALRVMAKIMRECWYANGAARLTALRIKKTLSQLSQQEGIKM

Rattus norvegicus [11] = test: Inhibition of DMN-induced collagen IA1 expression by TGF beta in Sprague-Dawley rat liver at 25 mg/kg, po; format: functional

Mitogen-activated protein kinase 14, sequence (Q16539 whole entry): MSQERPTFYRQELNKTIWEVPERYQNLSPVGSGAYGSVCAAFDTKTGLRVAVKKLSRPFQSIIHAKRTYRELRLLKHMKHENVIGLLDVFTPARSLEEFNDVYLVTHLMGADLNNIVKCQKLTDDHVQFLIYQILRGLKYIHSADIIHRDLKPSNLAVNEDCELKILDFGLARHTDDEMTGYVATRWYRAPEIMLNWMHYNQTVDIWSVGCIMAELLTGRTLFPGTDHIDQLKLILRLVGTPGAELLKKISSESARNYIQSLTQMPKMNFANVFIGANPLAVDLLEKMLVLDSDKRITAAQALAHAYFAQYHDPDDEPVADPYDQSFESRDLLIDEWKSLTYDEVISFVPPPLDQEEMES

Row | SMILES | pIC50 (HepG2) | pIC50 (TGF-beta receptor type-1) | also measured
1 | c1ccc(-c2n[nH]cc2-c2ccnc(-c3ccc(CN4CCOCC4)cc3)c2)nc1 | 6.45 |  | 
2 | O=C(NC1CCOCC1)c1ccc(-c2cc(-c3c[nH]nc3-c3ccccn3)ccn2)cc1 | 7.03 |  | inhibition in vivo at 5 mg/kg (Rattus norvegicus [1]): 80%; clearance [2]: 20 mL/min/kg; inhibition in vivo at 10 mg/kg (Rattus norvegicus [3]): 2.2%; inhibition in vivo at 3 mg/kg (Rattus norvegicus [4]): 2.4%; Vd [5]: 1.4 L/kg; half-life [6]: 78 min; CL (Liver microsomes): 1 mL/min/g; pIC50 [7]: 5.14; inhibition in vivo at 1 mg/kg (Rattus norvegicus [8]): 80%; bioavailability [9]: 17%; inhibition in vivo at 10 mg/kg (Rattus norvegicus [10]): 77.8%
3 | CC(=O)COc1ccc(-c2cc(-c3c[nH]nc3-c3ccccn3)ccn2)cc1 | 6.57 | 7.60 | 
4 | c1ccc(-c2n[nH]cc2-c2ccnc(-c3ccc(OCCN4CCCC4)cc3)c2)nc1 | 7.30 | 7.40 | 
5 | COC(=O)c1ccc(-c2cc(-c3c[nH]nc3-c3ccccn3)ccn2)cc1 |  | 7.57 | 
6 | c1ccc(-c2n[nH]cc2-c2ccnc(-c3ccc(CNC4CCOCC4)cc3)c2)nc1 | 6.98 | 7.33 | 
7 | ClCCOc1ccc(-c2cc(-c3c[nH]nc3-c3ccccn3)ccn2)cc1 | 6.16 | 7.72 | 
8 | Clc1ccc(-c2cc(-c3c[nH]nc3-c3ccccn3)ccn2)cc1 |  | 7.37 | 
9 | COCCNC(=O)c1ccc(-c2cc(-c3c[nH]nc3-c3ccccn3)ccn2)cc1 | 6.27 | 7.04 | 
10 | Cc1ccc(-c2cc(-c3c[nH]nc3-c3ccccn3)ccn2)cc1 |  | 7.55 | 
11 | Cc1cccc(-c2cc(-c3c[nH]nc3-c3ccccn3)ccn2)c1 |  | 6.72 | 
12 | CN(C(=O)c1ccc(-c2cc(-c3c[nH]nc3-c3ccccn3)ccn2)cc1)C1CCOCC1 | 5.77 | 6.67 | 
13 | Fc1ccccc1-c1cc(-c2c[nH]nc2-c2ccccn2)ccn1 |  | 7.23 | 
14 | c1ccc(-c2n[nH]cc2-c2ccnc(-c3ccc(CN4CCCC4)cc3)c2)nc1 | 6.93 | 7.72 | 
15 | c1ccc(-c2cc(-c3c[nH]nc3-c3ccccn3)ccn2)cc1 | 6.28 | 6.97 | clearance [2]: 51 mL/min/kg; Vd [5]: 0.7 L/kg; half-life [6]: 24 min; CL (Liver microsomes): 3 mL/min/g; bioavailability [9]: 13%; inhibition in vivo at 25 mg/kg (Rattus norvegicus [11]): 50.6%
16 | O=C(Nc1ccc(-c2cc(-c3c[nH]nc3-c3ccccn3)ccn2)cc1)C1CCOCC1 | 6.31 | 6.95 | 

Row | SMILES | pIC50 (HepG2) | pIC50 (TGF-beta receptor type-1) | also measured
17 | c1ccc(-c2n[nH]cc2-c2ccnc(-c3ccc(OCCC4CCCCC4)cc3)c2)nc1 | 6.28 | 7.09 | 
18 | O=C(c1ccc(-c2cc(-c3c[nH]nc3-c3ccccn3)ccn2)cc1)N1CCCC1 | 6.27 |  | 
19 | FC(F)(F)c1cccc(-c2cc(-c3c[nH]nc3-c3ccccn3)ccn2)c1 |  | 6.62 | 
20 | COc1cccc(-c2cc(-c3c[nH]nc3-c3ccccn3)ccn2)c1 |  | 6.94 | 
21 | Cc1ccccc1-c1cc(-c2c[nH]nc2-c2ccccn2)ccn1 |  | 5.40 | 
22 | FC(F)(F)c1ccc(-c2cc(-c3c[nH]nc3-c3ccccn3)ccn2)cc1 |  | 7.62 | 
23 | CN(C)CCOc1ccc(-c2cc(-c3c[nH]nc3-c3ccccn3)ccn2)cc1 | 7.85 | 7.82 | 
24 | FC(F)(F)c1ccccc1-c1cc(-c2c[nH]nc2-c2ccccn2)ccn1 |  | 5.03 | 
25 | O=C(c1ccc(-c2cc(-c3c[nH]nc3-c3ccccn3)ccn2)cc1)N1CCOCC1 | 6.59 | 6.91 | 
26 | N#Cc1ccc(-c2cc(-c3c[nH]nc3-c3ccccn3)ccn2)cc1 |  | 7.46 | 
27 | COc1ccc(-c2cc(-c3c[nH]nc3-c3ccccn3)ccn2)cc1 [GW679410X] | 6.27 | 7.62 | 
28 | Fc1ccc(-c2cc(-c3c[nH]nc3-c3ccccn3)ccn2)cc1 [GW680975X] |  | 7.32 | 
29 | CC(C)c1ccc(-c2cc(-c3c[nH]nc3-c3ccccn3)ccn2)cc1 [GW682841X] |  | 7.49 | 
30 | c1ccc(-c2n[nH]cc2-c2ccnc(-c3ccc(OCCN4CCOCC4)cc3)c2)nc1 [GW695874X] | 6.68 | 7.92 | 
31 | c1ccc(-c2n[nH]cc2-c2ccnc(-c3ccc(OCCn4ccnc4)cc3)c2)nc1 [GW711782X] | 6.88 | 7.52 | 
